{"source": "patent EP1708721B1", "about": "“MYOCARDIAL PERFUSION IMAGING USING ADENOSINE RECEPTOR AGONISTS” (Gilead Sciences, Inc., priority 2004, dated 2005)", "key": {"[1]": {"system": "subjects (26 men, 9 women)", "assay": "Example 6: stress/rest SPECT myocardial perfusion imaging, adenosine versus CVT-3146", "format": "in vivo, human", "procedure": "To determine the ability of CVT-3146 to produce coronary hyperemia and accurately detect CAD, 35 subjects (26 men, 9 women; 67±10 years) underwent both A and CVT-3146 stress/rest MPI, with 10.0±9.1 days between studies. […] CVT-3146 [400 mcg (n=18), 500 mcg (n=17)] was administered as an IV bolus immediately followed by a saline flush, and then a Tc-99m radiopharmaceutical [sestamibi (n=34), tetrofosmin (n=1)]. SPECT images were uniformly processed, intermixed with control studies (normal and fixed-only defects), and interpreted by three observers in a blinded fashion using a 17-segment model. Quantitative analysis was also performed using 4D MSPECT. In addition to three separate readings, a consensus interpretation was performed and then a direct, same-screen comparison of A and CVT-3146 images undertaken to determine relative differences, using 5 regions per study."}, "human subjects": {"system": "human subjects", "assay": "Example 2: dose range study, coronary flow velocity, heart rate and blood pressure after IV bolus", "format": "in vivo", "procedure": "The study included patients undergoing a clinically indicated coronary catheterization with no more than a 70% stenosis in any coronary artery and no more than a 50% stenosis of the study vessel had CBFv determined by Doppler flow wire. Study subject were selected after measuring baseline and peak CBFv after an intracoronary (IC) injection of 18 µg of Ado. 36 subjects were identified as meeting the study criteria of having a peak to baseline CBFv ration of ≥ 2.5 in response to Adenosine,\nCVT-3146 was administered to the study subjects by IV bolus in less that 10 seconds in amounts ranging from 10 µg to 500 µg.\nThe effectiveness of both compounds was measured by monitoring coronary flow velocity. Other coronary parameters that were monitored included heart rate and blood pressure. These parameters were measured in order to evaluate the time to peak dose response, the magnitude of the dose response and the duration of the dose response. Adverse events were also monitored. Coronary blood flow velocity was measured at the left anterior descending coronary artery (LAD) or left circumflex coronary artery (LCx). The velocity measurements were taken by following standard heart catheterization techniques and inserting a 0.014 inch Doppler-tipped Flowire into the LAD or LCx vessel and thereafter monitoring blood flow velocity. In addition, hemodynamic and electrocardiographic measurements were recorded continuously.\nOverall, 36 human subjects (n=36) were evaluated. Of the 36, 18 were female and 18 were male. Their mean age was 53.4 and they ranged from 24-72 years in age. Of the 36 subjects evaluated, the LAD vessel of 31 subjects was monitored, and the LCx vessel of 5 subjects was monitored. The following doses (µg) of CVT-3146 were given to the subjects in a single iv bolus: 10 (n=4); 30 (n=6); 100 (n=4); 300 (n=7); 400 (n=9); 500 (n=6)."}, "[2]": {"assay": "half-life of CVT-3146 (background statement)", "conditions": "in vivo; species not stated; read-out: initial half-life", "procedure": "The purpose of this open label study was to determine the magnitude and duration of effect of CVT-3146 (10-500 µg) on CBFv in humans."}, "[3]": {"system": "subjects (27 men, 9 women)", "assay": "Example 7: pharmacologic stress myocardial perfusion imaging protocol, adverse effects and hemodynamics", "format": "in vivo, human", "from_the_text": "36 subjects (27 men, 9 women; 67±10 years) were studied with two doses of CVT-3146 [400 mcg (n=18), 500 mcg (n=18)], administered as an IV bolus, as part of a pharmacologic stress myocardial perfusion imaging protocol."}, "awake rats": {"system": "awake rats", "assay": "Example 5: sympathoexcitation, heart rate, blood pressure and plasma catecholamines after i.v. bolus", "format": "in vivo", "procedure": "The present study was carried out to determine whether CVT-3146, a selective A2A adenosine receptor agonist, causes sympathoexcitation. CVT-3146 (0.31µg/kg-50 µg/kg) was given as a rapid i.v. bolus to awake rats and heart rate (HR) and blood pressure (BP) were monitored. CVT-3146 caused an increase in BP and systolic pressure (SP) at lower doses while at higher doses there was a decrease in BP and SP. […] The increase in HR was evident at the lowest dose of CVT-3146 at which there was no appreciable decrease in BP. ZM241385 (30 µg/kg , N=5), an A2A receptor antagonist, attenuated the decrease in BP (CVT-3146: 14±3%, ZM: 1±1 %) and the increase in HR (CVT: 27±3%, ZM: 18±3%) caused by CVT-3146. Pretreatment with metoprolol (MET, 1 mg/kg, n=5), a beta-blocker, attenuated the increase in HR (CVT: 27±3%, MET: 15±2%), but had no effect on hypotension caused by CVT-3146. In the presence of hexamethonium (HEX, 10 mg/kg, n=5), a ganglionic blocker, the tachycardia was prevented (CVT: 27±3%, HEX: -1±2%), but BP was further reduced (CVT: -11±2%, HEX: -49±5%)."}, "[4]": {"conditions": "direct comparison of A and CVT-3146 images, 5 regions per study"}, "[5]": {"conditions": "peak hemodynamic changes, mean±S.D., 400 and 500 mcg"}}, "data": [{"smiles": "CNC(=O)c1cnn(-c2nc(N)c3ncn([C@@H]4O[C@H](CO)[C@@H](O)[C@H]4O)c3n2)c1", "note": "[CVT-3146, (1-{9-[(4S,2R,3R,5R)-3,4-dihydroxy-5-(hydroxymethyl)oxolan-2-yl]-6-aminopurin-2-yl}pyrazol-4-yl)-N-methylcarboxamide]", "values": [{"measurement": "summed scores following stress, quantitative methods of analysis", "setting": "[1]; SPECT MPI, 4D MSPECT, CVT-3146 400 or 500 mcg IV bolus, A infusion", "result": "13.6±1.6"}, {"measurement": "summed scores following stress, visual", "setting": "[1]; SPECT MPI, 17-segment model, CVT-3146 400 or 500 mcg IV bolus, A infusion", "result": "13.2±1.3"}, {"measurement": "regional concordance for ischemia extent", "setting": "[1]; [4]", "result": 86.3, "unit": "%"}, {"measurement": "regional concordance for ischemia severity", "setting": "[1]; [4]", "result": 83.4, "unit": "%"}, {"measurement": "Maximum decrease in diastolic BP", "setting": "human subjects; 400 µg IV bolus", "result": "10 ± 5", "unit": "mmHg"}, {"measurement": "Maximum decrease in systolic BP", "setting": "human subjects; 400 µg IV bolus", "result": "20 ± 8", "unit": "mmHg"}, {"measurement": "Maximum increase in heart rate", "setting": "human subjects; 400 µg IV bolus", "result": "18 ± 8", "unit": "bpm"}, {"measurement": "time coronary blood flow velocity ≥ 2.5-fold above baseline was maintained", "setting": "human subjects; 400 µg IV bolus", "result": 2.8, "unit": "min"}, {"measurement": "time of maximum decrease in diastolic BP after dosing", "setting": "human subjects; 400 µg IV bolus", "result": "about 1 minute"}, {"measurement": "time of maximum increase in heart rate after dosing", "setting": "human subjects; 400 µg IV bolus", "result": "about 1 minute"}, {"measurement": "amount at which plateau peak velocity is reached", "setting": "human subjects; IV bolus", "result": "less than 100 µg"}, {"measurement": "amount that increases peak flow velocity (as low as)", "setting": "human subjects; IV bolus", "result": 10, "unit": "µg"}, {"measurement": "time at which peak flow was reached", "setting": "human subjects; all doses (10 to 500 µg IV bolus)", "result": "about 30 seconds"}, {"measurement": "peak effects", "setting": "human subjects; doses above about 100 µg", "result": "equivalent to 18 µg adenosine administered IC"}, {"measurement": "half-life", "setting": "[2]", "result": 3, "unit": "min"}, {"measurement": "ST abnormalities developed", "setting": "[3]; 36 subjects", "result": 7, "unit": "pts"}, {"measurement": "T wave abnormalities developed", "setting": "[3]; 36 subjects", "result": 5, "unit": "pts"}, {"measurement": "Flushing", "setting": "[3]; 400-mcg group", "result": 17, "unit": "%"}, {"measurement": "dizziness", "setting": "[3]; 400-mcg group", "result": 11, "unit": "%"}, {"measurement": "dyspnea", "setting": "[3]; 400-mcg group", "result": 17, "unit": "%"}, {"measurement": "mean change in HR response", "setting": "[3]; 400 mcg dose", "result": 34.8, "unit": "%"}, {"measurement": "Flushing", "setting": "[3]; 500-mcg group", "result": 44, "unit": "%"}, {"measurement": "dizziness", "setting": "[3]; 500-mcg group", "result": 28, "unit": "%"}, {"measurement": "dyspnea", "setting": "[3]; 500-mcg group", "result": 44, "unit": "%"}, {"measurement": "mean change in HR response", "setting": "[3]; 500 mcg dose", "result": 44.2, "unit": "%"}, {"measurement": "BP changes deviated from baseline", "setting": "[3]; Thirty min after CVT-3146", "result": "< 2", "unit": "%"}, {"measurement": "HR remained above baseline by", "setting": "[3]; Thirty min after CVT-3146", "result": 8.6, "unit": "%"}, {"measurement": "abdominal pain", "setting": "[3]; both doses, 36 subjects", "result": 11, "unit": "%"}, {"measurement": "chest discomfort", "setting": "[3]; both doses, 36 subjects", "result": 33, "unit": "%"}, {"measurement": "headache", "setting": "[3]; both doses, 36 subjects", "result": 25, "unit": "%"}, {"measurement": "systolic BP did not fall below", "setting": "[3]; either dose", "result": "≥ 90", "unit": "mmHg"}, {"measurement": "serious AE occurred", "setting": "[3]; exacerbation of a migraine headache, required hospitalization", "result": "One"}, {"measurement": "2nd or 3rd degree AV block", "setting": "[3]; in vivo", "result": "No 2nd or 3rd degree AV block was noted"}, {"measurement": "serious arrhythmias", "setting": "[3]; in vivo", "result": "no serious arrhythmias"}, {"measurement": "time of peak hemodynamic effect, diastolic BP", "setting": "[3]; in vivo", "result": 8, "unit": "min"}, {"measurement": "time of peak hemodynamic effect, heart rate (HR)", "setting": "[3]; in vivo", "result": "≤ 0.033", "unit": "h"}, {"measurement": "time of peak hemodynamic effect, systolic blood pressure (BP)", "setting": "[3]; in vivo", "result": 4, "unit": "min"}, {"measurement": "Diastolic BP, Absolute Change", "setting": "[3]; [5]", "result": "-5.4±7.2", "unit": "mmHg"}, {"measurement": "Diastolic BP, Relative Change", "setting": "[3]; [5]", "result": "-7.9%±10.5%"}, {"measurement": "Heart Rate, Absolute Change", "setting": "[3]; [5]", "result": "+21.9±10.4 beats per min"}, {"measurement": "Heart Rate, Relative Change", "setting": "[3]; [5]", "result": "+36.7%+21.0%"}, {"measurement": "Systolic BP, Absolute Change", "setting": "[3]; [5]", "result": "-5.9±10.7", "unit": "mmHg"}, {"measurement": "Systolic BP, Relative Change", "setting": "[3]; [5]", "result": "4.1%±7.6%"}, {"measurement": "AEs mild to moderate", "setting": "[3]; share of AEs", "result": 96, "unit": "%"}, {"measurement": "AEs resolved within 15 min without treatment", "setting": "[3]; share of AEs", "result": 91, "unit": "%"}, {"measurement": "increase in HR", "setting": "awake rats; CVT-3146 alone", "result": "27±3", "unit": "%"}, {"measurement": "decrease in BP", "setting": "awake rats; CVT-3146 alone (comparison with ZM241385)", "result": "14±3", "unit": "%"}, {"measurement": "BP (change)", "setting": "awake rats; CVT-3146 alone (comparison with hexamethonium)", "result": "-11±2", "unit": "%"}]}]}
